In publication PMC9370021, “Novel 1,3-Thiazole Analogues with Potent Activity against Breast Cancer: A Design, Synthesis, In Vitro, and In Silico Study” (Molecules, 2022):

Columns and labels:
[1] = tested on: MCF-7 breast cancer cell line; experiment: MTT anti-proliferative assay, MCF-7; type: cell-based; details: Homo sapiens, MCF7, 48 h, mean ± S.E.M.
Experimental: (§1) Toward this aim, the cells were treated with the synthesized compounds at different concentrations and were incubated for 48 h. In our evaluations, staurosporine (STU) was used as a reference drug. After the cells were washed, they were treated with MTT solution, and an ELISA reader assessed the absorption of the solution at a wavelength of 570 nm.
(§2) Finally, the resulting MTT crystals were dissolved at ambient temperature in acidified isopropanol (180 µL/well) with shaking, and the absorption was assessed at 570 nm utilizing ELISA.

[2] = tested on: MDA-MB-231 breast cancer cell line; experiment: MTT anti-proliferative assay, MDA-MB-231; type: cell-based; details: mean ± S.E.M.
Experimental: as §1, §2

human VEGFR-2/KDR = human VEGFR-2/KDR (Homo sapiens, UniProt P35968); experiment: VEGFR-2 inhibitory activity (VEGFR-2/KDR ELISA kit)
Sequence of human VEGFR-2/KDR (P35968 20-1356): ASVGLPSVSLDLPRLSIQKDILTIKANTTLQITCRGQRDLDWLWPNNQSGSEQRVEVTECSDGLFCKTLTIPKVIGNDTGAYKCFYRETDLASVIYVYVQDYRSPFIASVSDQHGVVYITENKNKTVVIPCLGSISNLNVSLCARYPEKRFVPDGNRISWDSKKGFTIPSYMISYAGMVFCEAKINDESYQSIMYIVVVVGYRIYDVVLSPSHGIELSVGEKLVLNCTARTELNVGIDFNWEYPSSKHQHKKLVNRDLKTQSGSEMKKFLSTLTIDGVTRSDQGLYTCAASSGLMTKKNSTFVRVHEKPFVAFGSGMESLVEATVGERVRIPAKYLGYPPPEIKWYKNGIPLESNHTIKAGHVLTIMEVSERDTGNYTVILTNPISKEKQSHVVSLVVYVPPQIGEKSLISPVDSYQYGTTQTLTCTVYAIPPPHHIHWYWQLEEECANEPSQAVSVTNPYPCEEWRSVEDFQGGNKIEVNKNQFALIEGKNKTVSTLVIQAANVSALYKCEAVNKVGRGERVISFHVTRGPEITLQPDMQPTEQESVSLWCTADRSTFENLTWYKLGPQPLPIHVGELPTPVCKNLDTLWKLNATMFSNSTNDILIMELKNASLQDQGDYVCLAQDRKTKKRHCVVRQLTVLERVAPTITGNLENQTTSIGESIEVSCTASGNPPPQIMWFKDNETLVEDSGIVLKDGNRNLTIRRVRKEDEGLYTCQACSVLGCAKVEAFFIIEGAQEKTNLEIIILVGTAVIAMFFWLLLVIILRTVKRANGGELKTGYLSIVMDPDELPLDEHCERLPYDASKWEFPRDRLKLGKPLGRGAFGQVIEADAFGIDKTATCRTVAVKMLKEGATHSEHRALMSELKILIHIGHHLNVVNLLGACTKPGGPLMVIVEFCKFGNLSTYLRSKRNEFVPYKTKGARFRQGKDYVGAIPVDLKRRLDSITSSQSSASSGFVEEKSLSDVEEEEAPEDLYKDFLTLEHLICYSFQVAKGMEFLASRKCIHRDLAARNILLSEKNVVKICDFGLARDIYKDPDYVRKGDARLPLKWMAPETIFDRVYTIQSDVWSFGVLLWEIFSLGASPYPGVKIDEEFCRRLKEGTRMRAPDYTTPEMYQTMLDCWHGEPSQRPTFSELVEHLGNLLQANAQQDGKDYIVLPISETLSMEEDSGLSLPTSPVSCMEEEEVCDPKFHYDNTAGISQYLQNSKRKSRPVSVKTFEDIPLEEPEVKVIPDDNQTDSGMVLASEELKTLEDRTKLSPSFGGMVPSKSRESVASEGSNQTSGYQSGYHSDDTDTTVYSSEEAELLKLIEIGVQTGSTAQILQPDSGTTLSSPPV
Experimental: In our experiments, we used Sorafenib as a positive control drug reference. The activity of compounds was assessed at different concentrations, and the IC50 values were determined.

[3] = tested on: epithelial breast cell line MCF-10A; experiment: MTT cytotoxicity assay, epithelial breast cells MCF-10A; type: cell-based; details: Homo sapiens, 48 h, mean ± S.E.M.
Experimental: as §1, §2

MCF-7 cells [4] = experiment: Cell cycle analysis by flow cytometry (propidium iodide); type: cell-based; details: MCF-7, 5.73 µM, 24 h
Experimental: Based on the anti-proliferative activity results, we selected compound 4 to further explore and achieve insights into the mechanism responsible for the cytotoxicity of this class of compounds. Toward this aim, we assessed the effect of compound 4 on the cell cycle distribution of MCF-7 cells utilizing flow cytometry analysis. The cell cycle distribution analysis was evaluated after incubation of MCF-7 cells with compound 4 at 5.73 µM. […] Further, compound 4 induced a substantial diminution in the cellular population at the G2/M stage. As indicated in Figure 5a–c, the cellular populations of the G2/M and pre-G1 phases in the control cells were 16.99% and 2.12%, respectively, while the populations were altered to 6.81% and 31.66%, respectively, in the presence of compound 4 at 5.73 µM.
To assess the effect of compound 4 on the cell cycle of MCF-7 cells, we treated the MCF-7 cells with compound 4 and analyzed the cell cycle arrest at different stages as previously reported. […] After the cells were incubated with propidium iodide (5 mg/mL, Sigma, Ronkonkoma, NY, USA) and Rnase (10 mg/mL, Sigma, Ronkonkoma, NY, USA), cytofluorometry analysis was performed using FACS Calibur cytometer, and the results were analyzed utilizing Cell quest software (BD Bioscience, San Jose, CA, USA).

MCF-7 cells [5] = experiment: Annexin V-FITC/PI dual staining (apoptosis and necrosis); type: cell-based; details: MCF-7, 5.73 µM, 24 h
Experimental: Our findings encouraged us to further explore the mechanistic insights accounting for the potent cytotoxicity and cell cycle arrest. To investigate whether the mode of action for the antiproliferative activity of compound 4 toward MCF-7 cells involves apoptosis and/or necrosis, we performed Annexin V- FITC/PI dual staining assay. To this end, we treated MCF-7 cells with compound 4 (5.73 µM) for 24h and assessed the programmed cell death at different stages utilizing the cytofluorometry analysis. […] Indeed, treatment with compound 4 increased apoptosis by 9 and 89 times at the early and late stages, respectively, compared to control cells.
To explore the effect of compound 4 on the programmed cell death mechanisms of MCF-7 cells, fluorescent Annexin V-FITC/ PI assay was performed using flow cytometry following a previously reported procedure. Briefly, MCF-7 cells (2 × 10^5) were treated with compound 4 at 5.73 µM concentration. After incubation for 24 h, the harvested cells were stained in the dark at 37 °C with Annexin V-FITC/ PI dye for 15 min. Cytofluorometry analysis was assessed by BD FACS Calibur (Becton and Dickinson, Heidelberg, Germany), and the BD cell Quest pro software was utilized to analyze the results.

IC50 [1]	IC50 ([2]; Homo sapiens, MDA-MB-231, 48 h)	melting point	Structure (SMILES)	other results
18.6 ± 1.42 µM	20.7 ± 1.58 µM	155 to 157 °C	C/C(=N\N(c1nc(-c2ccc(Cl)cc2)cs1)C(O)c1ccc(O)cc1)c1ccc(Br)cc1 (stereo not drawn) [Compound 5a, (E)-4-((2-(1-(4-Bromophenyl)ethylidene)-1-(4-(4-chlorophenyl)thiazol-2-yl)hydrazineyl)(hydroxy)methyl)phenol]	–
32.5 ± 2.47 µM	62.12 ± 0.47 µM	158 to 160 °C	COc1cc(C(O)N(/N=C(\C)c2ccc(Br)cc2)c2nc(-c3ccc(Cl)cc3)cs2)ccc1O (stereo not drawn) [Compound 5b, (E)-4-((2-(1-(4-Bromophenyl)ethylidene)-1-(4-(4-chlorophenyl)thiazol-2-yl)hydrazineyl)(hydroxy)methyl)-2-methoxyphenol]	–

Further lines, the compound ahead of its results:

Structure (SMILES)	IC50 [1]	IC50 ([2]; Homo sapiens, MDA-MB-231, 48 h)	melting point	other results
C/C(=N\Nc1nc(-c2ccc(Cl)cc2)cs1)c1ccc(Br)cc1 [Compound 3b, (E)-2-(2-(1-(4-bromophenyl)ethylidene)hydrazineyl)-4-(4-chlorophenyl)thiazole]	31.2 ± 2.38 µM	36.8 ± 2.81 µM	185 °C	–
C/C(=N\Nc1nc(-c2ccc(Br)cc2)cs1)c1ccccc1O [Compound 3c, (E)-2-(1-(2-(4-(4-Bromophenyl)thiazol-2-yl)hydrazineylidene)ethyl)-phenol]	13.7 ± 1.04 µM	17.1 µM	–	IC50 ([2]; 48 h): 17.08 ± 0.13 µM; IC50 (human VEGFR-2/KDR): 0.253 ± 0.54 µM
CC(=O)Nc1nc(-c2ccc(Cl)cc2)cs1 [Compound 4, N-(4-(4-Chlorophenyl)-Thiazol-2-yl)Acetamide]	5.73 ± 0.44 µM	12.2 ± 0.93 µM	–	IC50 [3]: 36.8 ± 5 µM; cellular population in pre-G1 phase (MCF-7 cells [4]; control 2.12%): 31.66%; cellular population in G2/M phase (MCF-7 cells [4]; control 16.99%): 6.81%; increase of apoptosis at the early stage compared to control cells (MCF-7 cells [5]): 9 times; increase of apoptosis at the late stage compared to control cells (MCF-7 cells [5]): 89 times; increase of necrosis compared to control cells (MCF-7 cells [5]): 9 times; necrosis percentage (MCF-7 cells [5]; control 1.26%): 11.77%
CC(=O)Oc1ccc(C(OC(C)=O)N(/N=C(\C)c2ccc(Br)cc2)c2nc(-c3ccc(Cl)cc3)cs2)cc1 (stereo not drawn) [Compound 6a, (E)-4-(Acetoxy(2-(1-(4-bromophenyl)ethylidene)-1-(4-(4-chlorophenyl)thiazol-2-yl)hydrazineyl)methyl)phenyl acetate]	> 100 µM	> 100 µM	126 to 128 °C	–
Oc1ccc(/C=N/Nc2nc(-c3ccc(Cl)cc3)cs2)cc1 [Compound 3a, (E)-4-((2-(4-(4-Chlorophenyl)thiazol-2-yl)hydrazineylidene)methyl)-phenol]	24.9 ± 1.9 µM	18.7 ± 1.42 µM	–	–
COc1cc(C(OC(C)=O)N(/N=C(\C)c2ccc(Br)cc2)c2nc(-c3ccc(Cl)cc3)cs2)ccc1OC(C)=O (stereo not drawn) [Compound 6b, (E)-4-(Acetoxy(2-(1-(4-bromophenyl)ethylidene)-1-(4-(4-chlorophenyl)thiazol-2-yl)hydrazineyl)methyl)-2-methoxyphenyl acetate]	43.8 ± 2.04 µM	77 ± 1.95 µM	126 to 128 °C	–
